The results in this text go back to PubChem BioAssay (NCI).

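Cultured in 96-well plates, cells were exposed to test compound for 48 hours across five concentrations. Abbreviation: GI50, concentration required for 50% inhibition of growth. TGI: concentration producing complete growth inhibition.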

The first experiment concerns HCT-116 colon. Description: DTP human tumour cell line panel, 48 h.
A word on the GI50: it is the concentration giving 50% growth inhibition. By TGI is commonly meant the concentration at which net growth stops. Higher therefore signals less potent growth arrest. Turning to `Cc1c2c(nn1-c1ccc(S(=O)(=O)/N=C3\SCCC(=O)N3c3ccccc3)cc1)-c1ccccc1CC2`, the GI50 is > 100 µM and the TGI was > 100 µM.
For `CC(=O)/C(=C\c1cccc([N+](=O)[O-])c1)C(=O)Nc1ccccc1C`, the TGI is > 100 µM.

Another experiment deals with HOP-92 NSCLC. Description: DTP human tumour cell line panel, 48 h.
Take `O=c1cc(-c2ccccc2)oc2cc(OCCCOc3ccc4c(=O)cc(-c5ccccc5)oc4c3)ccc12`: the TGI was > 100 µM.
The compound `COc1cc2c(c(OC)c1OC)-c1ccc(OC)c(=O)cc1C(NC(=O)c1ccc(N=[N+]=[N-])cc1)CC2` (stereo not drawn) came in with a TGI of 18.9 µM.
Consider `CC(C)=Cc1cc(C(=O)Nc2ccc(Cl)c(Cl)c2)nc(N)n1`, for which the TGI is > 100 µM.
As for `Cn1cnc([N+](=O)[O-])c1Sc1nc2ccccc2[nH]1`, the total growth inhibition concentration (TGI) came out at 40.8 µM.
With `COc1ccc([C@H]2[C@@H](F)C(=O)N2c2cc(OC)c(OC)c(OC)c2)cc1F`, the GI50 is 0.266 µM and the TGI amounted to 63.9 µM.
Take `COc1cc(NCc2ccc3oc(=O)c(-c4ccccc4)nc3c2)cc(OC)c1OC`: the TGI is > 10 µM.
On to `O=C(Nc1ccc(Cl)cc1)c1cccc(NC2=C(Cl)C(=O)N(Cc3ccccc3)C2=O)c1`, for which the GI50 was 9.85 µM and the TGI was 21.5 µM.
Take `CCOC(=O)NC(=O)c1cn(CCCO)c(=O)[nH]c1=O`: the TGI was > 100 µM.
On the same count and under the same terms, then `CN(C)c1nc(=Nc2ccc(N=c3nc(N(C)C)ss3)cc2)ss1`, with > 100 µM; and `COc1cc(OC)cc(-c2cc(=O)c3c(OC)c(OC)c(OC)c(OC)c3o2)c1`, with 90.8 µM.
On the same count and under the same terms, with `CSc1nc(NC2OCC(OC(C)=O)C(OC(C)=O)C2OC(C)=O)c(N=CC=Nc2c(NC3OCC(OC(C)=O)C(OC(C)=O)C3OC(C)=O)nc(SC)[nH]c2=O)c(=O)[nH]1` (stereo not drawn) the figure was > 100 µM; with `CCc1cc(Cc2cc(CC)c(NC(=O)C(=O)Cc3ccccn3)c(CC)c2Cl)c(Cl)c(CC)c1NC(=O)C(=O)Cc1ccccn1`, > 100 µM.
On to `C[Si](C)(C)C1(Sc2ccccc2)SCCCS1`, for which the TGI is > 100 µM.
For the compound `CCOC(=O)C(=C=C=C(c1ccccc1)c1ccccc1)C(=O)OCC`, the TGI turned out to be 31.3 µM.
In the case of `C/C(=N\NC(=S)NC(CCC(=O)O)C(=O)O)c1ccccn1` (stereo not drawn), the TGI is > 100 µM.
Take `Cc1c2c(nn1-c1ccc(S(=O)(=O)/N=C3\SCCC(=O)N3c3ccccc3)cc1)-c1ccccc1CC2`: the GI50 was 81.2 µM and the TGI is > 100 µM.
In the same order, the values of `COc1cc(/C=C2\CN(S(=O)(=O)c3ccccc3)C/C(=C\c3cc(CN4CCCC4)c(O)c(OC)c3)C2=O)cc(CN2CCCC2)c1O` are 1.51 µM and 4.69 µM.
As for `CC(=O)/C(=C\c1cccc([N+](=O)[O-])c1)C(=O)Nc1ccccc1C`, the TGI is > 100 µM.

Another experiment relates to LOX IMVI melanoma. Description: DTP human tumour cell line panel, 48 h.
Regarding `O=c1cc(-c2ccccc2)oc2cc(OCCCOc3ccc4c(=O)cc(-c5ccccc5)oc4c3)ccc12`, the TGI is > 100 µM.
`COc1cc2c(c(OC)c1OC)-c1ccc(OC)c(=O)cc1C(NC(=O)c1ccc(N=[N+]=[N-])cc1)CC2` (stereo not drawn) displayed a TGI of 24.9 µM.
`Cc1ccc(S(=O)(=O)Nc2ccccc2C(=O)c2ccc(C)c(C)c2)cc1`: the TGI is > 100 µM.
Regarding `CC(C)=Cc1cc(C(=O)Nc2ccc(Cl)c(Cl)c2)nc(N)n1`, the TGI is > 100 µM.
The compound `Cn1cnc([N+](=O)[O-])c1Sc1nc2ccccc2[nH]1` gave a TGI of 51 µM.
Turning to `COc1ccc([C@H]2[C@@H](F)C(=O)N2c2cc(OC)c(OC)c(OC)c2)cc1F`, the GI50 is 0.0904 µM and the TGI is > 100 µM.
As for `COc1cc(NCc2ccc3oc(=O)c(-c4ccccc4)nc3c2)cc(OC)c1OC`, the TGI was > 10 µM.
Take `O=S(=O)(CCn1c(Sc2ccccc2)c(Sc2ccccc2)c2ccccc21)c1ccccc1`: the TGI is > 100 µM.
With `O=C(Nc1ccc(Cl)cc1)c1cccc(NC2=C(Cl)C(=O)N(Cc3ccccc3)C2=O)c1`, the GI50 is 11.1 µM and the TGI amounted to 23.2 µM.
Consider `OCC#Cc1ccccc1C#Cc1ccccc1`, for which the GI50 is 13.2 µM and the TGI was 27.6 µM.
In the case of `CC(=O)[C@@]12O[C@@H]1CC1C3CCC4=CC(O)CCC4(C)C3CCC12C` (stereo partly drawn), the GI50 is 44.4 µM and the TGI was > 100 µM.
Consider `CCOC(=O)NC(=O)c1cn(CCCO)c(=O)[nH]c1=O`, for which the TGI was > 100 µM.
As to `CN(C)c1nc(=Nc2ccc(N=c3nc(N(C)C)ss3)cc2)ss1`, the TGI was > 67.9 µM.
On the same count and under the same terms, with `COc1cc(OC)cc(-c2cc(=O)c3c(OC)c(OC)c(OC)c(OC)c3o2)c1` the figure was > 100 µM; with `CSc1nc(NC2OCC(OC(C)=O)C(OC(C)=O)C2OC(C)=O)c(N=CC=Nc2c(NC3OCC(OC(C)=O)C(OC(C)=O)C3OC(C)=O)nc(SC)[nH]c2=O)c(=O)[nH]1` (stereo not drawn), > 100 µM; with `CCc1cc(Cc2cc(CC)c(NC(=O)C(=O)Cc3ccccn3)c(CC)c2Cl)c(Cl)c(CC)c1NC(=O)C(=O)Cc1ccccn1`, > 100 µM.
Take `C[Si](C)(C)C1(Sc2ccccc2)SCCCS1`: the TGI is > 100 µM.
For `O=C(CSc1ccc(Cl)cc1)Nc1ccc(-c2nc3ccccc3s2)c(Cl)c1`, the GI50 is 5.07 µM and the TGI was > 100 µM.
As to `ClCc1cccc(Cn2cnc3ncnc(Cl)c32)c1`, the GI50 was 3.11 µM and the TGI was found to be 14 µM.
Compound `CCOC(=O)C(=C=C=C(c1ccccc1)c1ccccc1)C(=O)OCC` returned a TGI of 36.6 µM.
As to `C/C(=N\NC(=S)NC(CCC(=O)O)C(=O)O)c1ccccn1` (stereo not drawn), the TGI is > 100 µM.
As to `Cc1c2c(nn1-c1ccc(S(=O)(=O)/N=C3\SCCC(=O)N3c3ccccc3)cc1)-c1ccccc1CC2`, the GI50 was > 100 µM and the TGI was > 100 µM.
Consider `COc1cc(/C=C2\CN(S(=O)(=O)c3ccccc3)C/C(=C\c3cc(CN4CCCC4)c(O)c(OC)c3)C2=O)cc(CN2CCCC2)c1O`, for which the GI50 is 0.332 µM and the total growth inhibition concentration (TGI) came to 1.14 µM.
Take `CC(=O)/C(=C\c1cccc([N+](=O)[O-])c1)C(=O)Nc1ccccc1C`: the TGI was > 100 µM.

In another experiment the test system is RPMI-8226 leukemia. Description: DTP human tumour cell line panel, 48 h.
Consider `O=c1cc(-c2ccccc2)oc2cc(OCCCOc3ccc4c(=O)cc(-c5ccccc5)oc4c3)ccc12`, for which the TGI was > 100 µM.
`COc1cc2c(c(OC)c1OC)-c1ccc(OC)c(=O)cc1C(NC(=O)c1ccc(N=[N+]=[N-])cc1)CC2` (stereo not drawn) came in with a TGI of 4.41 µM.
`Cc1ccc(S(=O)(=O)Nc2ccccc2C(=O)c2ccc(C)c(C)c2)cc1`: the total growth inhibition concentration (TGI) was > 100 µM.
Still for that read-out and setting: then `CC(C)=Cc1cc(C(=O)Nc2ccc(Cl)c(Cl)c2)nc(N)n1`, with > 100 µM; and `Cn1cnc([N+](=O)[O-])c1Sc1nc2ccccc2[nH]1`, with 56.4 µM.
Take `COc1ccc([C@H]2[C@@H](F)C(=O)N2c2cc(OC)c(OC)c(OC)c2)cc1F`: the GI50 is 0.055 µM and the TGI stood at 37.3 µM.
For `COc1cc(NCc2ccc3oc(=O)c(-c4ccccc4)nc3c2)cc(OC)c1OC`, the TGI is > 10 µM.
Take `O=S(=O)(CCn1c(Sc2ccccc2)c(Sc2ccccc2)c2ccccc21)c1ccccc1`: the TGI was > 100 µM.
In the case of `O=C(Nc1ccc(Cl)cc1)c1cccc(NC2=C(Cl)C(=O)N(Cc3ccccc3)C2=O)c1`, the GI50 was 4.67 µM and the TGI was 18.6 µM.
